Data set [1] addresses DNA-PK phosphorylation at serine 2056 (Homo sapiens (Human), UniProt P78527). Briefly: DNA-PK phosphorylation at serine 2056 (cellular), bleomycin-treated HCT116 cells, ELISA. Type of data set: cell-based. Particulars: cellular DNA-PK phosphorylation at serine 2056, HCT116; read-out: IC50 pDNA-PK. In short, it runs like this: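 HCT116 cells were treated with 10 μM bleomycin plus test compounds for six hours at 37 °C. Phospho-Ser2056 DNA-PK measured by chemiluminescent ELISA, normalised to total DNA-PKcs signal; DMSO control as blank.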
(In general: An ELISA detects its analyte on a solid surface through an enzyme-linked reagent.)

Another data set concerns the target DNA-PK (Homo sapiens (Human), UniProt P78527). Briefly: DNA-PK assay (biochemical), flashplate 33P-ATP kinase assay. Particulars: biochemical DNA-PK assay. In short, it runs like this:
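Radiometric kinase reaction in streptavidin-coated flashplates, stopped with 200 mM EDTA, then 30 min room-temperature incubation and saline washes.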

Another data set addresses Kv11.1 (hERG) (Homo sapiens (Human), UniProt Q12809). Briefly: Kv11.1 (hERG) ion channel activity (patch clamp assay), HEK293 cells transfected with hERG gene. The following applies: hERG patch clamp assay (cells without asterisk).

Molecules are shown by their SMILES. Where two headings read alike, the source gives them in different places.

Kv11.1 (hERG), sequence (Q12809 whole entry): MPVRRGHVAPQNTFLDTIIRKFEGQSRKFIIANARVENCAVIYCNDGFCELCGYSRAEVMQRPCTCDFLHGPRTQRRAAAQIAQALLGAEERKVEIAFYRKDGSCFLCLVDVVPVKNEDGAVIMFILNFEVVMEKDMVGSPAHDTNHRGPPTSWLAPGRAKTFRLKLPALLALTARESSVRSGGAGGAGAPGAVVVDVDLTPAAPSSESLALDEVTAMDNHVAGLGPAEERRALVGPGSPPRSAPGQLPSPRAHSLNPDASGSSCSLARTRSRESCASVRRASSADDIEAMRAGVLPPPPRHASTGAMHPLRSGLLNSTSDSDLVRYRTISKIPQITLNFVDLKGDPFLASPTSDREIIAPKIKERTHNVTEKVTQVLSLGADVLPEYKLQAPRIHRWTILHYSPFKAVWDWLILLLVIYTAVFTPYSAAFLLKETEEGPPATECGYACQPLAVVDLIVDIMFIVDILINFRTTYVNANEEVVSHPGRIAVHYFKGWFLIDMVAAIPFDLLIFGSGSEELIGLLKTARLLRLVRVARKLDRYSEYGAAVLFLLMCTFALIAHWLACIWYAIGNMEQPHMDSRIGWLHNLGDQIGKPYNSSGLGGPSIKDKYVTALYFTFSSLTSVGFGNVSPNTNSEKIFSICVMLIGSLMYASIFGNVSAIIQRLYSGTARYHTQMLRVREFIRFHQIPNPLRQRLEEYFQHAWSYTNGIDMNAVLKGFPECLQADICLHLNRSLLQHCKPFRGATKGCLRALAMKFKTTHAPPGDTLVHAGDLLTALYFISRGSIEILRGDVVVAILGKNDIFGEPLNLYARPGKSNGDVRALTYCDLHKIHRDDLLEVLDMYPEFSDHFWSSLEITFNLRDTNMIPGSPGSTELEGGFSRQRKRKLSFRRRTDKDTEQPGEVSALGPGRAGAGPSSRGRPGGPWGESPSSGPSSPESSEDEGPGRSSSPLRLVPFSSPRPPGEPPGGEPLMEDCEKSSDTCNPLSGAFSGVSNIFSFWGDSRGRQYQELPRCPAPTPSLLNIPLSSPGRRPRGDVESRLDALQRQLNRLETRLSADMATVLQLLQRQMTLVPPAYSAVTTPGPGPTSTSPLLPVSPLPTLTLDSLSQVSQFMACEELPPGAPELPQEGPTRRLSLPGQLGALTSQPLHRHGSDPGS
Procedure for Kv11.1 (hERG): C) Kv11.1 (hERG) Ion Channel Activity (Patch Clamp Assay)
The patch-clamp measurement was carried out at room temperature in whole-cell configuration on human embryonic kidney cells (HEK293) which have been transfected in a stable manner with the hERG gene.
The whole-cell configurations were carried out using an automated patch clamp device (Patchliner™, Nanion Technologies, Munich). […] The glass chip has a hole of defined size to which the cell is transferred into the Gigaseal by application of a reduced pressure and brought into the whole-cell configuration. Buffer, cell suspension and test substances were added to microchannels of the chip using a Teflon-coated pipette. The cells were clamped to a holding potential of −80 mV. For measurement of substance-promoted inhibition of the Kv11.1 channel, the following voltage protocol was applied at 10-second intervals: 51 ms/−80 mV, 500 ms/+40 mV, 500 ms/−40 mV, 200 ms/−80 mV. The leakage current is subtracted by means of the P4 method. The cells were resuspended in extracellular buffer (EC) and applied to the chip. After the cell had been collected, the seal was improved by addition of a seal enhancer buffer. As soon as the whole-cell configuration had been reached, the seal enhancer buffer was washed out and replaced by extracellular buffer. The measurement started in EC for 1.5 min. DMSO (vehicle control, 0.1% of DMSO) was then applied, and the control current was recorded for 3 min. The test substance was subsequently added twice in the same concentration, and the potassium current was measured for 3.5 min in each case.
The reference substance used was the Kv11.1 (hERG) ion channel blocker quinidine. The effects of test substances and quinidine were standardised to the associated vehicle control. The effect on the Kv11.1 (hERG) channel activity was assessed from the potassium current at −40 mV. For the calculation, the current was evaluated for the respective final trace.
During the measurement, an aliquot of the test substance was taken for concentration determination. The sample was measured immediately by HPLC, and the final concentration was determined from a calibration curve.

By IC50 is commonly meant the point on the concentration scale where inhibition reaches its midpoint. A word on the Ki: it is a measure of affinity in units of concentration, obtained from inhibition or displacement. As for `NC(=O)C(c1cc(-c2ncnc3cc(N4CCOCC4)ccc23)c(F)cc1Cl)c1cccc2nncn12` (stereo not drawn) [Example 298, 2-[2-Chloro-4-fluoro-5-(7-morpholin-4-yl-quinazolin-4-yl)-phenyl]-2-[1,2,4]-triazolo[4,3-a]pyridin-5-ylacetamide], the results for the IC50 (in data set [1]; on DNA-PK) were 10 to 30 µM and 0.007 to 0.03 µM, respectively. Also, on Kv11.1 (hERG) (read-out: Ki [Kv1.11 hERG]), the Ki was greater than 25 µM.

Take `NC(=O)C(c1ccc(F)c(-c2ncnc3cc(N4CCOCC4)ccc23)c1)c1ncnn2cccc12` (stereo not drawn) [Example 299, 2-[4-Fluoro-3-(7-morpholin-4-yl-quinazolin-4-yl)-phenyl]-2-pyrrolo-[2,1-f][1,2,4]triazin-4-ylacetamide]: the figures for the 50% inhibitory concentration (IC50) (in data set [1]; against DNA-PK) were 10 to 30 µM and 0.007 to 0.03 µM, respectively. Further, the Ki on Kv11.1 (hERG) (read-out: Ki [Kv1.11 hERG]) was less than 10 µM.

Turning to `NC(=O)C(c1cccnn1)c1cc(-c2ncnc3cc(N4CCOCC4)ccc23)c(F)cc1Cl` (stereo not drawn) [Example 300, 2-[2-Chloro-4-fluoro-5-(7-morpholin-4-yl-quinazolin-4-yl)-phenyl]-2-pyridazin-3-ylacetamide], the IC50 in data set [1] is 10 to 30 µM; on DNA-PK, 0.007 to 0.03 µM. On Kv11.1 (hERG) (read-out: Ki [Kv1.11 hERG]), the Ki is greater than 25 µM.

As for `Cc1cnc(C(C(N)=O)c2cc(-c3ncnc4cc(N5CCOCC5)ccc34)c(F)cc2Cl)c(C)n1` (stereo not drawn) [Example 301, 2-[2-Chloro-4-fluoro-5-(7-morpholin-4-yl-quinazolin-4-yl)-phenyl]-2-(3,5-dimethyl-pyrazin-2-yl)acetamide], the IC50 in data set [1] was in the range of 0.5 to 5 µM; at DNA-PK, 0.007 to 0.03 µM. Further, the Ki on Kv11.1 (hERG) (read-out: Ki [Kv1.11 hERG]) is greater than 25 µM.

Turning to `Nc1cncc(C(O)c2ccc(F)c(-c3ncnc4cc(N5CCOCC5)ccc34)c2)n1` (stereo not drawn) [Example 302, (6-Amino-pyrazin-2-yl)-[4-fluoro-3-(7-morpholin-4-yl-quinazolin-4-yl)-phenyl]methanol], the IC50 in data set [1] was 5 to 10 µM; at DNA-PK, 0.003 to 0.007 µM. For the same compound, the Ki on Kv11.1 (hERG) (read-out: Ki [Kv1.11 hERG]) is greater than 25 µM.

`Cc1nccnc1C(C(N)=O)c1cc(-c2ncnc3cc(N4CCOCC4)ccc23)ccc1Cl` (stereo not drawn) [Example 303, 2-[2-Chloro-5-(7-morpholin-4-yl-quinazolin-4-yl)-phenyl]-2-(3-methyl-pyrazin-2-yl)-acetamide]: the IC50 is 5 to 10 µM in data set [1] and 0.007 to 0.03 µM against DNA-PK. The Ki on Kv11.1 (hERG) (Ki [Kv1.11 hERG]) is 15 to 25 µM.

On to `COc1nccnc1C(C(N)=O)c1cc(-c2ncnc3cc(N4CCOCC4)ccc23)ccc1Cl` (stereo not drawn) [Example 304, 2-[2-Chloro-5-(7-morpholin-4-yl-quinazolin-4-yl)-phenyl]-2-(3-methoxy-pyrazin-2-yl)acetamide], for which the IC50 in data set [1] lay in the range of 5 to 10 µM; against DNA-PK, 0.007 to 0.03 µM. Moreover, at Kv11.1 (hERG) (read-out: Ki [Kv1.11 hERG]), the Ki was greater than 25 µM.

`COc1nccnc1C(C(N)=O)c1ccc(F)c(-c2ncnc3cc(N4CCOCC4)ccc23)c1` (stereo not drawn) [Example 305, 2-[4-Fluoro-3-(7-morpholin-4-yl-quinazolin-4-yl)-phenyl]-2-(3-methoxy-pyrazin-2-yl)acetamide]: the values for the IC50 (in data set [1]; against DNA-PK) were 5 to 10 µM and 0.007 to 0.03 µM, respectively. Further, the Ki at Kv11.1 (hERG) (read-out: Ki [Kv1.11 hERG]) is greater than 25 µM.

Take `COc1ccc(C(C(N)=O)c2cc(-c3ncnc4cc(N5CCOCC5)ccc34)c(F)cc2F)nn1` (stereo not drawn) [Example 306, 2-[2,4-Difluoro-5-(7-morpholin-4-yl-quinazolin-4-yl)-phenyl]-2-(6-methoxy-pyridazin-3-yl)acetamide]: the half-inhibitory concentration (IC50) in data set [1] is 10 to 30 µM; against DNA-PK, 0.007 to 0.03 µM. On Kv11.1 (hERG) (read-out: Ki [Kv1.11 hERG]), the Ki is greater than 25 µM.

`COc1nnccc1C(C(N)=O)c1cc(-c2ncnc3cc(N4CCOCC4)ccc23)c(F)cc1Cl` (stereo not drawn) [Example 307, 2-[2-Chloro-4-fluoro-5-(7-morpholin-4-yl-quinazolin-4-yl)-phenyl]-2-(3-methoxypyridazin-4-yl)acetamide]: the IC50 in data set [1] fell in the range of 5 to 10 µM; at DNA-PK, 0.003 to 0.007 µM. Besides, the Ki at Kv11.1 (hERG) (read-out: Ki [Kv1.11 hERG]) was greater than 25 µM.

Regarding `COc1ccc(C(C(N)=O)c2ccc(F)c(-c3ncnc4cc(N5CCOCC5)ccc34)c2)nn1` (stereo not drawn) [Example 308, 2-[4-Fluoro-3-(7-morpholin-4-yl-quinazolin-4-yl)-phenyl]-2-(6-methoxypyridazin-3-yl)acetamide], the IC50 fell in the range of 10 to 30 µM in data set [1] and 0.007 to 0.03 µM at DNA-PK. The Ki on Kv11.1 (hERG) (read-out: Ki [Kv1.11 hERG]) was greater than 25 µM.
